Measurements: patent US9676818B2, “Toll-like receptor 2-agonistic lipopeptides, and method of making the same” (University of Kansas, priority 2013, dated 2017)

Target: human TLR2 (Homo sapiens (Human), UniProt O60603)
Test: human TLR2-specific NF-κB reporter gene assay (HEK-Blue cells)
Type: cell-based
Settings: for EC50: human TLR2-specific reporter gene assay, ND = no activity detected at 10 μM, read-out: TLR2-Agonistic Activity (EC50 in nM); for hTLR2-agonistic activity in words: hTLR2 reporter gene assay
Excerpt: The induction of NF-κB in a TLR2-specific reporter gene assay was quantified using HEK-BLUE™ cells as previously described (Wu, W. et al., J. Med. Chem. 2010, 53, 3198-3213). HEK293 cells stably transfected with either human TLR2 or murine TLR2 and alkaline phosphatase (sAP) were obtained from InvivoGen (San Diego, Calif.), and were maintained in HEK-BLUE™ Selection medium containing zeocin and normocin. Stable expression of secreted alkaline phosphatase (sAP) under control of NF-κB promoters is inducible by TLR2 agonists, and extracellular sAP in the supernatant is proportional to NF-κB induction. HEK-Blue cells were incubated at a density of ˜10^5 cells/mL in a volume of 80 μL/well, in 384-well, flat-bottomed, cell culture-treated microtiter plates until confluency was achieved, and then stimulated with serially-diluted aliquots of compounds for 12 h. sAP was assayed spectrophoto-metrically using an alkaline phosphatase-specific chromogen (present in the HEK-detection medium as supplied by the vendor) at 620 nm. For antagonism assays, HEK-Blue cells were incubated at a density of ˜10^5 cells/mL in a volume of 80 μL/well and stimulated with either PAM2CS (1 μg/mL) or lipoteichoic acid (1 μg/mL) in the presence of graded concentrations of the test compounds as described for TLR7 previously (Shukla, N. M.; et al., Bioorg. Med. Chem. Lett. 2009, 19, 2211-2214; Shukla, N. M. et al., Bioorg. Med. Chem. 2011, 19, 3801-3811).

human TLR2, sequence (O60603 21-784): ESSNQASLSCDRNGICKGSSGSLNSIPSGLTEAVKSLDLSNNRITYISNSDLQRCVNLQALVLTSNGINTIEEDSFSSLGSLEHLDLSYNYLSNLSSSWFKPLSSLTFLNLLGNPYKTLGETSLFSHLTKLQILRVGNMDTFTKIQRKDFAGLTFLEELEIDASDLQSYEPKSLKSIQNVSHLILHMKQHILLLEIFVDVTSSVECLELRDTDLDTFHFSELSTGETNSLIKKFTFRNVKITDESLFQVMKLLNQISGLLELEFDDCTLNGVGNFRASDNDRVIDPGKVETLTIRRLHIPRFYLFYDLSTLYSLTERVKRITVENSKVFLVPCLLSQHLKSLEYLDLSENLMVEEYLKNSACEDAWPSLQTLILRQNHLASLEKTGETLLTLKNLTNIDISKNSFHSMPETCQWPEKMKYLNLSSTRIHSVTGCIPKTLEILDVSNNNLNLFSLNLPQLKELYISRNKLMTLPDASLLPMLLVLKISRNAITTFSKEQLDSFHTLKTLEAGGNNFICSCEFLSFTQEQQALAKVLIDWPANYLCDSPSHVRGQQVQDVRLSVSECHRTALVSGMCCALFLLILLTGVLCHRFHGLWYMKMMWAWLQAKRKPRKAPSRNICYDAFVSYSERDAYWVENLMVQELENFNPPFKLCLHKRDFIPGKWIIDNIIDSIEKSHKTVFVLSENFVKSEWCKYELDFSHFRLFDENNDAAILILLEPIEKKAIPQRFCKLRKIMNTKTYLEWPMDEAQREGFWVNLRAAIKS

| EC50 [nM] | hTLR2-agonistic activity in words | SMILES |
| --- | --- | --- |
| 20.7 | – | CCCCCCCCCCCC(=O)O[C@H](CCCCCCCCCCC)CC(=O)OCCSC[C@H](NC(C)=O)C(=O)N[C@@H](CO)C(=O)OC [Compound 87] |
| 12.9 | – | CCCCCCCCCCC[C@H](CC(=O)OCCSC[C@H](NC(C)=O)C(=O)N[C@@H](CO)C(=O)OC)OC(=O)CCCCCCCCC [Compound 86] |
| 1.64 | – | CCCCCCCCCCCCCCCC(=O)OCCSC[C@H](NC(=O)CCC)C(=O)N[C@@H](CO)C(=O)OC [Compound 11e, 2-(((R)-2-butyramido-3-(((S)-3-hydroxy-1-methoxy-1-oxopropan-2-yl)amino)-3-oxopropyl)thio)ethyl palmitate] |
| 0.323 | – | CCCCCCCCCCCCCCCCNC(=O)OCCSC[C@H](NC(C)=O)C(=O)N[C@@H](CO)C(=O)OC [Compound 45, (2S,5R)-Methyl 5-acetamido-2-(hydroxymethyl)-4,11-dioxo-10-oxa-7-thia-3,12-diazaoctacosan-1-oate] |
| > 10000 | inactive | CCCCCCCCCCCCCCCC(=O)OCCSC[C@H](NC(=O)C(Cl)(Cl)Cl)C(=O)N[C@@H](CO)C(=O)OC [Compound 11i, 2-(((R)-3-(((S)-3-hydroxy-1-methoxy-1-oxopropan-2-yl)amino)-3-oxo-2-(2,2,2-trichloroacetamido)propyl)thio)ethyl palmitate] |
| 0.345 | – | CCCCCCCCCCC[C@H](CC(=O)OCCSC[C@H](NC(C)=O)C(=O)N[C@@H](CO)C(=O)OC)OC(=O)CCC [Compound 83] |
| 9.52 | – | CCCCCCCCCCCCCC(=O)O[C@H](CCCCCCCCCCC)CC(=O)OCCSC[C@H](NC(C)=O)C(=O)N[C@@H](CO)C(=O)OC [Compound 88] |
| > 10000 | complete absence of activity | COC(=O)[C@H](CO)NC(=O)[C@@H](N)CSCCOC(=O)c1cccc(-c2ccccc2)c1 [Compound 6g, 2-(((R)-2-amino-3-(((S)-3-hydroxy-1-methoxy-1-oxopropan-2-yl)amino)-3-oxopropyl)thio)ethyl[1,1′-biphenyl]-3-carboxylate] |
| 0.0615 | – | CCCCCCCCCCCCCCCCOC(=O)NCCSC[C@H](NC(C)=O)C(=O)N[C@@H](CO)C(=O)OC [Compound 48, (2S,5R)-Methyl 5-acetamido-2-(hydroxymethyl)-4,11-dioxo-12-oxa-7-thia-3,10-diazaoctacosan-1-oate] |
| > 10000 | complete loss of activity | CCCCCCCCCCCCCCCC(=O)N[C@@H](CSCCOC(=O)CCCCCCCCCCCCCCC)C(=O)N[C@@H](CO)C(=O)OC [Compound 11g, 2-(((R)-3-(((S)-3-hydroxy-1-methoxy-1-oxopropan-2-yl)amino)-3-oxo-2-palmitamidopropyl)thio)ethyl palmitate] |
| > 10000 | inactive | CCCCCCCCCCCCCCCC(=O)OCCSC[C@H](NS(C)(=O)=O)C(=O)N[C@@H](CO)C(=O)OC [Compound 11j, 2-(((R)-3-(((S)-3-hydroxy-1-methoxy-1-oxopropan-2-yl)amino)-2-(methylsulfonamido)-3-oxo-propyl)thio)ethyl palmitate] |
| > 10000 | inactive | CCCCCCCCCCCCCCCC(=O)OCCSC[C@H](NCC)C(=O)N[C@@H](CO)C(=O)OC [Compound 11a, 2-(((R)-2-(ethylamino)-3-(((S)-3-hydroxy-1-methoxy-1-oxopropan-2-yl)amino)-3-oxopropyl)thio)ethyl palmitate] |
| > 10000 | complete absence of activity | COC(=O)[C@H](CO)NC(=O)[C@@H](N)CSCCOC(=O)c1ccc(-c2ccccc2)cc1 [Compound 6f, 2-(((R)-2-amino-3-(((S)-3-hydroxy-1-methoxy-1-oxopropan-2-yl)amino)-3-oxopropyl)thio)ethyl[1,1′-biphenyl]-4-carboxylate] |
| 5.95 | – | CCCCCCCCCCCCCCCC(=O)OCCSC[C@H](N)C(=O)N[C@@H](COC(=O)CCCCCCCCCCCCCCC)C(=O)OC [Compound 14c, 2-(((R)-2-amino-3-(((S)-1-methoxy-1-oxo-3-(palmitoyloxy)propan-2-yl)amino)-3-oxopropyl)thio)ethyl palmitate] |
| 4.78 | – | CCCCCCCCCCCCCCCC(=O)O[C@H](CCCCCCCCCCC)CC(=O)OCCSC[C@H](NC(C)=O)C(=O)N[C@@H](CO)C(=O)OC [Compound 89] |
| > 10000 | – | CCCC(=O)OCCSC[C@H](N)C(=O)N[C@@H](CO)C(=O)OC [Compound 6a, 2-(((R)-2-Amino-3-(((S)-3-Hydroxy-1-Methoxy-1-oxopropan-2-yl)amino)-3-oxopropyl)thio)ethyl butyrate] |
| > 10000 | inactive | CCCCCCCCCCCCCCCCN[C@@H](CSCCOC(=O)CCCCCCCCCCCCCCC)C(=O)N[C@@H](CO)C(=O)OC [Compound 11c, 2-(((R)-2-(hexadecylamino)-3-(((S)-3-hydroxy-1-methoxy-1-oxopropan-2-yl)amino)-3-oxopropyl)thio)ethyl palmitate] |
| > 10000 | – | CCCCCCCCCCCC(=O)OCCSC[C@H](N)C(=O)N[C@@H](CO)C(=O)OC [Compound 6c, 2-(((R)-2-amino-3-(((S)-3-hydroxy-1-methoxy-1-oxopropan-2-yl)amino)-3-oxopropyl)thio)ethyl dodecanoate] |
| 260 | – | CCCCCCCCCCCCCc1cn(CCSC[C@H](NC(C)=O)C(=O)N[C@@H](CO)C(=O)OC)nn1 [Compound 41, (S)-Methyl 2-((R)-2-acetamido-3-((2-(4-tridecyl-1H-1,2,3-triazol-1-yl)ethyl)thio)propanamido)-3-hydroxypropanoate] |
| 11.8 | – | CCCCCCCCCCCCCCCC(=O)NCCSC[C@H](NC(C)=O)C(=O)N[C@@H](CO)C(=O)OC [Compound 34, (S)-Methyl 2-((R)-2-acetamido-3-((2-palmitamidoethyl)thio)propanamido)-3-hydroxypropanoate] |
| > 10000 | inactive | CCCCCCCCCCCCCCCC(=O)OCCSC[C@H](NS(=O)(=O)c1ccc(C)cc1)C(=O)N[C@@H](CO)C(=O)OC [Compound 11l, 2-(((R)-3-(((S)-3-hydroxy-1-methoxy-1-oxopropan-2-yl)amino)-2-(4-methylphenylsulfonamido)-3-oxopropyl)thio)ethyl palmitate] |
| 0.808 | – | CCCCCCCCCCC[C@H](CC(=O)OCCSC[C@H](NC(C)=O)C(=O)N[C@@H](CO)C(=O)OC)OC=O [Compound 66] |

| SMILES | EC50 [nM] | hTLR2-agonistic activity in words |
| --- | --- | --- |
| CCCCCCCCCCCCCCCC(=O)OCCCSC[C@H](NC(C)=O)C(=O)N[C@@H](CO)C(=O)OC [Compound 16, 3-(((R)-2-acetamido-3-(((S)-3-hydroxy-1-methoxy-1-oxopropan-2-yl)amino)-3-oxopropyl)thio)propyl palmitate] | 5.52 | active, albeit much weaker in potency than 11d |
| CCCCCCCCCCCCCCN(CCCCCCCCCCCCCC)CC(=O)OCCSC[C@H](N)C(=O)N[C@@H](CO)C(=O)OC [Compound 10a, (S)-methyl 2-((R)-2-amino-3-((2-(2-(ditetradecylamino)acetoxy)ethyl)thio)propan-amido)-3-hydroxypropanoate] | > 10000 | completely inactive |
| CCCCCCCCCCCCCCNCC(=O)OCCSC[C@H](N)C(=O)N[C@@H](CO)C(=O)OC [Compound 10b, (S)-methyl 2-((R)-2-amino-3-((2-(2-(tetradecylamino)acetoxy)ethyl)thio)propanamido)-3-hydroxypropanoate] | > 10000 | completely inactive |
